Series [1] is described as follows: Metabolic stability in rat liver microsomes assessed as intrinsic clearance. Format: ADME, Microsome. As to conditions: read-out: CLH. On the technique in general: Microsomes from liver hold many membrane-bound enzymes, among them those of drug oxidation.
A short description of series [2]: Metabolic stability in mouse liver microsomes assessed as intrinsic clearance. In kind it is ADME, Microsome. As to conditions: read-out: CLH.
Series [3] is described as follows: Metabolic stability in mouse liver microsomes assessed as half life. Format: ADME, Microsome.
Series [4] can be described thus: Metabolic stability in human liver microsomes assessed as intrinsic clearance. Format: ADME, Microsome. As to conditions: read-out: CLH.
Series [5] can be described thus: Metabolic stability in rat liver microsomes assessed as half life. In kind it is ADME, Microsome.
A short description of series [6]: Metabolic stability in human liver microsomes assessed as half life. In kind it is ADME, Microsome.
The target in series [7] is T1, Cannabinoid receptor 2 (Homo sapiens, UniProt P34972). The series is described as follows: Agonist activity at recombinant human CB2 receptor expressed in CHO cells assessed as inhibition of forskolin-induced cAMP accumulation by measuring maximum efficacy preincubated for 15 mins followed by forskolin stimulation and measured after 15 mins by HTRF assay relative to control. In kind it is functional, cell-based. The conditions noted are these: filed as agonist, time 30.0 min. A general note: Cyclic AMP is a second messenger, typically raised through Gs and lowered through Gi signalling.
T1 sequence (P34972 whole entry): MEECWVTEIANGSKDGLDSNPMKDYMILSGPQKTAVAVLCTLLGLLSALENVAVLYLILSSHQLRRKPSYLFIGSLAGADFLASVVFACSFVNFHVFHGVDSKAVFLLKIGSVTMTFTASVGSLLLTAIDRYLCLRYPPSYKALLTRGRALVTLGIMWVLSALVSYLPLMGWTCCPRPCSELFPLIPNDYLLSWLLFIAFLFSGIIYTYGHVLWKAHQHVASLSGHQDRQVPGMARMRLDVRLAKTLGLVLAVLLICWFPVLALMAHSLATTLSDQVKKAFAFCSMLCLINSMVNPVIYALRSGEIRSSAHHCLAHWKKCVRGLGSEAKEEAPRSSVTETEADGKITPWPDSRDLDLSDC

Series [8] addresses T2, Cannabinoid receptor 1 (Homo sapiens, UniProt P21554). The series is described as follows: Agonist activity at recombinant human CB1 receptor expressed in CHO cells assessed as inhibition of forskolin-induced cAMP accumulation preincubated for 15 mins followed by forskolin stimulation and measured after 15 mins by HTRF assay. In kind it is functional, cell-based.
Series [9] addresses T2, Cannabinoid receptor 1. The series is described as follows: Agonist activity at recombinant human CB1 receptor expressed in CHO cells assessed as inhibition of forskolin-induced cAMP accumulation by measuring maximum efficacy preincubated for 15 mins followed by forskolin stimulation and measured after 15 mins by HTRF assay relative to control. As to conditions: filed as agonist, time 30.0 min. Format: functional, cell-based.

For series [10], the target named is T2, Cannabinoid receptor 1. The series is described as follows: Displacement of [3H]-CP55940 from recombinant human CB1 receptor expressed in CHO cells assessed as inhibition constant incubated for 120 mins by radioligand binding assay. In kind it is cell-based. In general terms: Loss of bound radioactivity is the signal in a displacement assay; it reports binding, not function.

The target in series [11] is T1, Cannabinoid receptor 2. The series is described as follows: Agonist activity at recombinant human CB2 receptor expressed in CHO cells assessed as inhibition of forskolin-induced cAMP accumulation preincubated for 15 mins followed by forskolin stimulation and measured after 15 mins by HTRF assay. Format: functional, cell-based.
Series [12] deals with T1, Cannabinoid receptor 2. In words: Displacement of [3H]-CP55940 from recombinant human CB2 receptor expressed in CHO cells assessed as inhibition constant incubated for 120 mins by radioligand binding assay. In kind it is cell-based.

SMILES strings stand for the structures.

T2 sequence (P21554 whole entry): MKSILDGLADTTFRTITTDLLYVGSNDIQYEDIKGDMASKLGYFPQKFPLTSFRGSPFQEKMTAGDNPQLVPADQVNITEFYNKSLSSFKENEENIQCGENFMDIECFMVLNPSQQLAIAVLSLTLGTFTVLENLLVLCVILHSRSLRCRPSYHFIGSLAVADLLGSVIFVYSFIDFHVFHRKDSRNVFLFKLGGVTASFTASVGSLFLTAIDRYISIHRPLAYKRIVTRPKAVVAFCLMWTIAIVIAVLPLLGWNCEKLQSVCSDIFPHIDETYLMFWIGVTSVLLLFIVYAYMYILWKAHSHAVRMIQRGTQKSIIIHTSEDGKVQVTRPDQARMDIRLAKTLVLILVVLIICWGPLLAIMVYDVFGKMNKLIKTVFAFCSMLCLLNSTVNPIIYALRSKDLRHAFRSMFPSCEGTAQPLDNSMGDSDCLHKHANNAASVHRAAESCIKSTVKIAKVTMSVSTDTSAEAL

Usually half-life stands for the time needed for the level to fall by half in the phase considered. One may read the Emax as the maximal effect, on the per cent scale that the assay sets. Turning to `CCCCCCC(C)(C)c1cc(OC)c([C@H]2C=C(CO)[C@H]3C[C@@H]2C3(C)C)c(OC)c1`, the results for the CLint scaled in series [1], in series [2] and in [4] were 137 mL/min/kg, 696 mL/min/kg and 85.4 mL/min/kg, respectively. For the same compound, the half-life in [3] turned out to be 7.84 min; in series [5] it was 18.2 min; in series [6], 20.4 min. In addition, in [7], the Emax was determined as 101%.

As usually defined, the EC50 is the concentration needed to bring the measured effect to its halfway point. What is called Ki is the equilibrium dissociation constant of an inhibitor or competing ligand from its target. Consider `CCCCCC[Si](C)(C)c1cc(O)c(C2CCCCC2)c(O)c1`, for which the EC50 was determined as 453 nM in [8] and 55 nM in [11]. For the same compound, the results for the Emax in series [9] and in series [7] were 98.6% and 95.5%, respectively. The Ki in series [10] turned out to be 17.7 nM; in series [12] it was 9.08 nM.

Turning to `CCCC[Si](C)(C)c1cc(OC)c([C@H]2C=C(CO)[C@H]3C[C@@H]2C3(C)C)c(OC)c1`, the figures for the inhibition constant Ki in [10] and in [12] were 454 nM and 227 nM, respectively. Moreover, the EC50 in series [11] was 899 nM. The Emax in series [7] is 83.6%.

Take `CCCC[Si](C)(C)c1cc(O)c(C2CCCCC2)c(OC)c1`: the Ki in [10] came to 671 nM; in [12] it was 396 nM. Also, the concentration giving a half-maximal response (EC50) in [11] was determined as 707 nM. In addition, the Emax in [7] worked out at 90.4%.

`CCCC[Si](C)(C)c1cc(O)c(C2CCCCC2)c(O)c1`: the inhibitory constant (Ki) is 241 nM in series [10] and 31.4 nM in [12]. Moreover, the EC50 in series [11] is 25.3 nM. For the same compound, the Emax in series [7] was determined as 95.2%.

Regarding `C=C(C)[C@@H]1CCC(C)=C[C@H]1c1c(O)cc([Si](C)(C)CCCC)cc1O`, the EC50 came to 403 nM in series [8] and 190 nM in series [11]. For the same compound, the Emax in [9] is 94.6%; in series [7] it was 82.7%. Besides, the results for the Ki in series [10] and in series [12] were 15 nM and 7.25 nM, respectively.

Take `CCCCCC[Si](C)(C)c1cc(O)c2c(c1)OC(C)(C)[C@@H]1CC=C(CO)C[C@@H]21`: the results for the EC50 in series [8] and in series [11] were 6.58 nM and 61.3 nM, respectively. The Emax in series [9] worked out at 105%. Moreover, the Ki in [10] amounted to 0.43 nM; in [12] it was 0.97 nM.

Take `CCCCCC[Si](C)(C)c1cc(O)c(C2CCCC2)c(OC)c1`: the EC50 in series [8] stood at 709 nM; in [11] it was 236 nM. Moreover, the Emax in series [9] stood at 81.6%; in series [7], 89.8%. Moreover, the Ki was determined as 74.8 nM in series [10] and 167 nM in series [12].

Consider `CC[Si](C)(C)c1cc(O)c2c(c1)OC(C)(C)[C@@H]1CCC(C)=C[C@@H]21`, for which the inhibition constant (Ki) was 19.3 nM in series [10] and 1070 nM in series [12]. For the same compound, the EC50 in [11] is 352 nM. Moreover, in series [7], the Emax is 84.8%.

As to `CCCC[Si](C)(C)c1cc(O)c2c(c1)OC(C)(C)[C@@H]1CC=C(CO)C[C@@H]21`, the EC50 in series [8] is 35.2 nM; in series [11] it was 8340 nM. Further, the Emax in [9] is 102%; in series [7], 91.2%. The Ki was found to be 2.28 nM in series [10] and 0.65 nM in [12].

For the compound `CCCCCC[Si](C)(C)c1cc(O)c([C@H]2C=C(CO)[C@H]3C[C@@H]2C3(C)C)c(O)c1`, the EC50 in series [8] was 248 nM; in series [11], 63.5 nM. Moreover, the Emax in series [9] was found to be 102%; in series [7], 94.1%. Besides, the Ki in [10] stood at 14.3 nM; in series [12], 11.4 nM.

Consider `CCCCCC[Si](C)(C)c1cc(O)c(C2CCCCC2)c(OC)c1`, for which the EC50 in series [8] came out at 554 nM; in series [11] it was 76.4 nM. In addition, the Emax in series [9] amounted to 73.9%; in series [7], 92.7%. Also, the Ki in series [10] stood at 448 nM; in series [12], 165 nM.

In the case of `C=C(C)[C@@H]1CCC(C)=C[C@H]1c1c(O)cc(CCCCC)cc1O` [CANNABIDIOL], the CLint scaled amounted to 4900 mL/min/kg in [1], 1720 mL/min/kg in [2] and 390 mL/min/kg in series [4]. Further, the values for the half-life in series [3], in [5] and in series [6] were 1.11 min, 1.44 min and 4.46 min, respectively.

For `CCCC[Si](C)(C)c1cc(O)c(C2CCCC2)c(OC)c1`, the Ki worked out at 600 nM in series [10] and 903 nM in [12]. For the same compound, in [11], the EC50 amounted to 1000 nM. Also, the Emax in series [7] came out at 85.4%.

With `CCCCCC[Si](C)(C)c1cc(O)c(C2CCCC2)c(O)c1`, the Ki in series [10] was 64.2 nM; in [12] it was 42.3 nM. Besides, the EC50 in [11] is 446 nM. The Emax in series [7] worked out at 104%.

For the compound `CCCCCC[Si](C)(C)c1cc(O)c(C2CCCCCC2)c(OC)c1`, the results for the concentration giving a half-maximal response (EC50) in series [8] and in [11] were 3120 nM and 82.7 nM, respectively. Besides, the Emax in series [9] is 67.8%; in series [7], 98.7%. For the same compound, the figures for the Ki in [10] and in series [12] were 182 nM and 67.2 nM, respectively.

`CCCC[Si](C)(C)c1cc(O)c(C2CCCC2)c(O)c1`: the Ki in series [10] worked out at 464 nM; in series [12], 368 nM. In addition, in [11], the 50% effective concentration (EC50) was 53.8 nM. Also, the Emax in series [7] was 102%.

With `CCCCCC[Si](C)(C)c1cc(O)c2c(c1)OC(C)(C)c1ccc(C)cc1-2`, the EC50 in series [8] was determined as 12.3 nM; in series [11], 32.6 nM. Moreover, the Emax in series [9] worked out at 98.4%; in [7], 862%. The inhibition constant Ki in series [10] is 0.79 nM; in [12], 2.21 nM.

As to `CCCC[Si](C)(C)c1cc(O)c2c(c1)OC(C)(C)[C@@H]1CCC(C)=C[C@@H]21`, the EC50 in [8] was 13.9 nM; in series [11], 65.1 nM. Moreover, the maximum response (Emax) in series [9] worked out at 99.6%; in series [7], 95.4%. Also, the Ki in [10] came to 2.33 nM; in series [12], 1.48 nM.

Turning to `CCCC[Si](C)(C)c1cc(O)c(C2CCCCCC2)c(O)c1`, the EC50 in series [8] was 836 nM; in series [11] it was 84.4 nM. For the same compound, the Emax in series [9] worked out at 65%; in series [7], 93.4%. In addition, the results for the inhibition constant (Ki) in series [10] and in [12] were 143 nM and 63.5 nM, respectively.

As for `CCCC[Si](C)(C)c1cc(O)c2c(c1)OC(C)(C)c1ccc(CO)cc1-2`, the concentration for a half-maximal effect (EC50) was 214 nM in series [8] and 267 nM in series [11]. Also, the results for the Emax in [9] and in series [7] were 94.8% and 92.8%, respectively. Also, the Ki in series [10] was 2.79 nM; in series [12], 3.49 nM.

For the compound `CCCCCC[Si](C)(C)c1cc(O)c2c(c1)OC(C)(C)[C@@H]1CCC(C)=C[C@@H]21`, the EC50 in series [8] was found to be 5.94 nM; in series [11] it was 20.2 nM. Further, the Emax in [9] worked out at 99.2%; in series [7] it was 90.2%. The Ki in series [10] turned out to be 0.8 nM; in [12], 7.41 nM.

On to `CCCC[Si](C)(C)c1cc(O)c2c(c1)OC(C)(C)c1ccc(C)cc1-2`, for which the figures for the EC50 in series [8] and in series [11] were 400 nM and 268 nM, respectively. Besides, the figures for the Emax in [9] and in [7] were 102% and 90.4%, respectively. In addition, the Ki worked out at 5.15 nM in [10] and 5.01 nM in [12].

`CCCCCC[Si](C)(C)c1cc(O)c(C2CCCCCC2)c(O)c1`: the EC50 in series [8] came out at 129 nM; in [11] it was 165 nM. The Emax was 98% in [9] and 92% in series [7]. Moreover, the inhibition constant (Ki) amounted to 17.7 nM in series [10] and 6.53 nM in [12].

For the compound `CCCC[Si](C)(C)c1cc(O)c(C2CCCCCC2)c(OC)c1`, in series [11], the EC50 was found to be 475 nM. Besides, the Ki in series [12] is 616 nM. The maximal response (Emax) in series [7] came out at 93.3%.

As to `CCCCCC[Si](C)(C)c1cc(O)c2c(c1)OC(C)(C)c1ccc(CO)cc1-2`, the EC50 is 59.1 nM in [8] and 27400 nM in series [11]. The Emax in series [9] amounted to 93%; in [7], 92.7%. Further, the values for the Ki in series [10] and in [12] were 0.35 nM and 1.25 nM, respectively.

The values are drawn from ChEMBL document CHEMBL5096202, “Carbon-silicon switch led to the discovery of novel synthetic cannabinoids with therapeutic effects in a mouse model of multiple sclerosis” (Eur J Med Chem, 2021).
